Measurements reported in patent US6362369B1, “Phthalic acid diamide derivatives fluorine-containing aniline compounds as starting material, agricultural and horticultural insecticides, and a method for application of the insecticides” (Nihon Nohyaku Co., Ltd., priority 1997, dated 2002).

Tests used:
Type in all cases: in vivo
[1] = test system: diamondback moth (Plutella xylostella); assay: Insecticidal effect on diamondback moth (Test Example 1); conditions: for Insecticidal effect, Test Example 1 / Insecticidal effect (Test Example 1), judged from mortality: diamondback moth; for Insecticidal effect on diamondback moth (Test Example 1), judged grade: mortality judged according to the criterion shown in Test Example 1; for Insecticidal effect (Test Example 1), judged from mortality: judged by the criterion of Test Example 1
Method in brief: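 Eggs laid by adult moths on Chinese cabbage seedlings, which were immersed in test solution, air-dried and kept at 25 °C. Hatched insects counted 6 days after immersion and mortality calculated, with effect graded by criterion; triplicate groups of 10 insects.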

[2] = test system: common cutworm (Spodoptera Litura); assay: Insecticidal effect on common cutworm (Test Example 2); conditions: 500 ppm, 25° C.; for Insecticidal effect, Test Example 2: cabbage leaf immersed; for Insecticidal effect, Test Example 2 / Insecticidal effect on common cutworm (Test Example 2), judged grade: eight days after inoculation; for Insecticidal effect on common cutworm (Test Example 2), judged grade / Insecticidal effect (Test Example 2), judged from mortality: cabbage leaf dip; for Insecticidal effect on common cutworm (Test Example 2), judged grade: second-instar larvae; for Insecticidal effect (Test Example 2), judged from mortality: 8 days after inoculation
Method in brief: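 Mortality is the read-out: larvae are counted as dead or alive on day 8 and the percentage is graded by an effect criterion. Second-instar larvae are kept with the air-dried treated material in a sealed dish at 25° C, in triplicate groups of ten.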

[3] = test system: rice leafroller (Cnaphalocrocis medinalis); assay: Insecticidal effect on rice leafroller (Test Example 3); conditions: 500 ppm, 25° C., humidity 70%; for Insecticidal effect, Test Example 3: rice lamina immersed; for Insecticidal effect, Test Example 3 / Insecticidal effect on rice leafroller (Test Example 3), judged grade: four days after inoculation; for Insecticidal effect on rice leafroller (Test Example 3), judged grade / Insecticidal effect (Test Example 3), judged from mortality: rice lamina dip; for Insecticidal effect on rice leafroller (Test Example 3), judged grade: third-instar larvae; for Insecticidal effect (Test Example 3), judged from mortality: 4 days after inoculation
Method in brief: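 Groups of 10 third-instar larvae, in triplicate, are placed on air-dried lamina resting on wet filter paper. Incubation runs four days at 25° C with 70% humidity before survivors and dead are tallied.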

[4] = mortality judged by criterion of Test Example 1
[5] = common cutworm second-instar larvae
[6] = rice leafroller third-instar larvae
[7] = second-instar larvae of common cutworm
[8] = third-instar larvae of rice leafroller
[9] = judged by the mortality criterion of Test Example 1

SMILES	Insecticidal effect, Test Example 1 [1, 4]	Insecticidal effect, Test Example 2 [2, 5]	Insecticidal effect, Test Example 3 [3, 6]	further results
C=CCNC(=O)c1c(I)cccc1C(=O)Nc1ccc(C(F)(F)C(F)(F)F)cc1C [compound 987]	A (100)	A (100)	A (100)	
CC(C)NC(=O)c1c(F)cccc1C(=O)Nc1ccc(C(F)(F)C(F)(F)C(F)(F)F)cc1Cl [compound 505]				Insecticidal effect on diamondback moth (Test Example 1), judged grade [1]: A (100); Insecticidal effect on common cutworm (Test Example 2), judged grade [2]: A (100); Insecticidal effect on rice leafroller (Test Example 3), judged grade [3]: A (100)
CC(C)(C)NC(=O)c1c(I)cccc1C(=O)Nc1ccc(OC(F)(F)F)cc1 [compound 940]	A (100)	A (100)	A (100)	
CCCNC(=O)c1c(I)cccc1C(=O)Nc1ccc(OC(F)(F)C(F)F)cc1C [compound 1058]	A (100)	A (100)	A (100)	
CCc1cc(C(F)(C(F)(F)F)C(F)(F)F)ccc1NC(=O)c1cccc(I)c1C(=O)NC(C)C [compound 1714]				Insecticidal effect (Test Example 1), judged from mortality [1]: A (100); Insecticidal effect (Test Example 2), judged from mortality [2, 7]: A (100); Insecticidal effect (Test Example 3), judged from mortality [3, 8]: A (100)
Cc1cc(C(F)(F)C(F)(F)F)ccc1NC(=O)c1cccc(Cl)c1C(=O)NC(C)(C)C#Cc1cccs1 [compound 1479]				Insecticidal effect (Test Example 1), judged from mortality [1]: A (100); Insecticidal effect (Test Example 2), judged from mortality [2, 7]: A (100); Insecticidal effect (Test Example 3), judged from mortality [3, 8]: A (100)
Cc1cc(C(F)(F)C(F)(F)C(F)(F)C(F)(F)C(F)(F)C(F)(F)F)ccc1NC(=O)c1cccc(Cl)c1C(=O)NC(C)C [compound 133]				Insecticidal effect, Test Example 1 [1, 9]: A (100); Insecticidal effect, Test Example 2 [2, 7]: A (100); Insecticidal effect, Test Example 3 [3, 8]: A (100)
CC(C)NC(=O)c1c(Cl)cccc1C(=O)Nc1ccc(C(F)(F)C(F)(F)C(F)(F)F)cc1F [compound 1494]				Insecticidal effect (Test Example 1), judged from mortality [1]: A (100); Insecticidal effect (Test Example 2), judged from mortality [2, 7]: A (100); Insecticidal effect (Test Example 3), judged from mortality [3, 8]: A (100)
Cc1cc(OC(F)(F)F)ccc1NC(=O)c1cccc(C(F)(F)F)c1C(=O)NC(C)(C)C [compound 1230]	A (100)	A (100)	A (100)	
CCCC(C)NC(=O)c1c(I)cccc1C(=O)Nc1ccc(C(F)(F)C(F)(F)F)cc1C (stereo not drawn) [compound 1009]	A (100)	A (100)	A (100)	
Cc1cc(C(F)(F)C(F)(F)C(F)(F)C(F)(F)F)ccc1NC(=O)c1c(Br)cccc1C(=O)NC(C)C [compound 318]				Insecticidal effect, Test Example 1 [1, 9]: A (100); Insecticidal effect, Test Example 2 [2, 7]: B (99-90); Insecticidal effect, Test Example 3 [3, 8]: A (100)
Cc1cc(C(F)(F)F)ccc1NC(=O)c1cccc(I)c1C(=O)NC(C)(C)C [compound 1141]	A (100)	A (100)	A (100)	
Cc1cc(C(F)(F)C(F)(F)F)ccc1NC(=O)c1cccc(Cl)c1C(=O)NC(C)(C)c1cccc(Cl)c1 [compound 1485]				Insecticidal effect (Test Example 1), judged from mortality [1]: A (100); Insecticidal effect (Test Example 2), judged from mortality [2, 7]: A (100); Insecticidal effect (Test Example 3), judged from mortality [3, 8]: A (100)
CCNC(=O)c1c(I)cccc1C(=O)Nc1ccc(OC(F)(F)C(F)F)cc1C [compound 1056]	A (100)	A (100)	A (100)	
CC(C)NC(=O)c1c(Cl)cccc1C(=O)Nc1ccc2c(c1)OC(F)(F)C(F)O2 (stereo not drawn) [compound 1163]	A (100)	A (100)	A (100)	
Cc1cc(C(F)(F)C(F)(F)F)ccc1NC(=O)c1cccc(OC(F)(F)F)c1C(=O)NC(C)(C)C [compound 1192]	A (100)	A (100)	A (100)	
Cc1cc(C(F)(F)C(F)(F)F)ccc1N(C)C(=O)c1cccc(I)c1C(=O)N(C)C [compound 1120]	A (100)	A (100)	A (100)	
CC(C)NC(=O)c1c(Cl)cccc1C(=O)Nc1ccc(SC(F)(F)F)cc1 [compound 997]	A (100)	A (100)	A (100)	
Cc1cc(OC(F)(F)C(F)Cl)ccc1NC(=O)c1c(I)cccc1C(=O)NC(C)C (stereo not drawn) [compound 455]				Insecticidal effect on diamondback moth (Test Example 1), judged grade [1]: A (100); Insecticidal effect on common cutworm (Test Example 2), judged grade [2]: B (99-90); Insecticidal effect on rice leafroller (Test Example 3), judged grade [3]: A (100)
Cc1cc(C(F)(F)C(F)(F)F)ccc1NC(=O)c1cccc(F)c1C(=O)NC(C)C [compound 495]				Insecticidal effect on diamondback moth (Test Example 1), judged grade [1]: A (100); Insecticidal effect on common cutworm (Test Example 2), judged grade [2]: A (100); Insecticidal effect on rice leafroller (Test Example 3), judged grade [3]: A (100)
Cc1cc(C(F)(C(F)(F)F)C(F)(F)F)ccc1NC(=O)c1ccc(Cl)c(Cl)c1C(=O)NC(C)C [compound 1223]	A (100)	A (100)	A (100)	
Cc1ccc(Cl)cc1NC(=O)c1cccc([N+](=O)[O-])c1C(=O)NC1CC1 [compound 851]				Insecticidal effect on diamondback moth (Test Example 1), judged grade [1]: A (100); Insecticidal effect on common cutworm (Test Example 2), judged grade [2]: D (79-50); Insecticidal effect on rice leafroller (Test Example 3), judged grade [3]: A (100)
CC(C)NC(=O)c1c(I)cccc1C(=O)Nc1ccc(F)cc1F [compound 1055]	A (100)	A (100)	A (100)	
CC(C)NC(=O)c1c(I)cccc1C(=O)Nc1ccc2oc(-c3ccc(C(F)(F)F)cc3)nc2c1 [compound 1173]	A (100)	A (100)	A (100)	
Cc1cc(OC(F)(F)C(F)(Cl)Cl)ccc1NC(=O)c1cccc(I)c1C(=O)NC(C)C [compound 381]				Insecticidal effect, Test Example 1 [1, 9]: A (100); Insecticidal effect, Test Example 2 [2, 7]: A (100); Insecticidal effect, Test Example 3 [3, 8]: A (100)
Cc1cc(C(F)(F)C(F)(F)F)ccc1NC(=O)c1ccccc1C(=O)NC(C)CO (stereo not drawn) [compound 1294]	A (100)	A (100)	A (100)	
Cc1cc(OC(F)(F)C(F)C(F)(F)F)ccc1NC(=O)c1c(Cl)cccc1C(=O)NC(C)C (stereo not drawn) [compound 242]				Insecticidal effect, Test Example 1 [1, 9]: A (100); Insecticidal effect, Test Example 2 [2, 7]: B (99-90); Insecticidal effect, Test Example 3 [3, 8]: A (100)
CC(C)NC(=O)c1c(Br)cccc1C(=O)Nc1ccc(OC(F)(F)F)cc1 [Compound No. 262, 3-bromo-N^1-(4-trifluoromethoxyphenyl)-N^2-isopropylphthalic acid diamide]				Insecticidal effect, Test Example 1 [1, 9]: A (100); Insecticidal effect, Test Example 2 [2, 7]: A (100); Insecticidal effect, Test Example 3 [3, 8]: D (79-50)
Cc1cc(Oc2ccc(C(F)(F)F)cn2)ccc1NC(=O)c1ccccc1C(=O)NC(C)C [compound 78]				Insecticidal effect, Test Example 1 [1, 9]: A (100); Insecticidal effect, Test Example 2 [2, 7]: A (100); Insecticidal effect, Test Example 3 [3, 8]: A (100)
